Laboratory results published in patent US10285989B2, “Pyrimidinone amide compounds as PDE2 inhibitors” (Merck Sharp & Dohme Corp., priority 2015, dated 2019).
Like-named read-outs stand apart in the source and are kept apart here.

Legend:
Rhesus PDE2A3 = Rhesus PDE2A3 (Macaca mulatta, UniProt B3VTJ2); test: PDE2 fluorescence polarization (IMAP FP) inhibition assay, rhesus PDE2A3; assay type: biochemical, rhesus macaque; conditions: for inhibition at 1 µM: read-out: Rhesus PDE2 % inhibition at a given concentration - Lab A
Protocol: A Labcyte Echo 555 (Labcyte, Sunnyvale, Calif.) is used to dispense 200 nL from each well of the titration plate to the 384 well assay plate. Ten microliters of a solution of enzyme (1/2000 final dilution from aliquots; sufficient to produce 20% substrate conversion) was added to the assay plate. Next 10 uL of a separate solution of the substrate FAM-labeled cAMP (50 nM final concentration product # R^7506 from Molecular Devices) and the activator cGMP (1 uM final concentration), prepared in the assay buffer (10 mM Tris HCl, pH 7.2, 10 mM MgCl2, 0.05% NaN3 0.01% Tween-20, and 1 mM DTT) was added to the assay plate and shaken to mix. The reaction is allowed to proceed at room temperature for 60 minutes. A binding solution is then made from the kit components, comprised of 80% Solution A, 20% Solution B and binding reagent at a volume of 1/600 the total binding solution. The enzymatic reaction is stopped by addition of 60 μL of the binding solution to each well of the assay plates and the plates are sealed and shaken for 30 seconds. The plate was incubated at room temperature for at least one hour prior to determining the fluorescence polarization (FP). The parallel and perpendicular fluorescence of each well of the plate was measured using a Tecan Genios Pro plate reader (Tecan, Switzerland) or Perkin Elmer EnVision™ plate reader (Waltham, Mass.). Fluorescence polarization (mP) was calculated from the parallel (S) and perpendicular (P) fluorescence of each sample well and the analogous values for the median control well, containing only substrate (So and Po), using the following equation: Polarization (mP)=1000*(S/So−P/Po)/(S/So+P/Po).
Dose-inhibition profiles for each compound were characterized by fitting the mP data to a four-parameter equation given below.
An apparent (KM) for FAM-labeled cAMP of ˜10 uM was used.

human PDE2A1 = human PDE2A1 (Homo sapiens (Human), UniProt O00408); test: PDE2 IMAP FP inhibition assay, human PDE2A1 (selectivity panel format); assay type: biochemical; conditions: Lab B; for Ki: read-out: Human PDE2 Ki (nM) - Lab B
Protocol: Selectivity for PDE2, as compared to other PDE families, was assessed using the IMAP® technology. Human PDE10A2 enzyme was prepared from cytosolic fractions of transiently transfected HEK cells.
A Labcyte POD 810 (Labcyte, Sunnyvale, Calif.) was used to dispense 200 nL from each well of the titration plate to make eleven copies of the assay plate for each titration, one copy for each PDE enzyme. A solution of each enzyme (dilution from aliquots, sufficient to produce 20% substrate conversion) and a separate solution of FAM-labeled cAMP or FAM-labeled cGMP from Molecular Devices (Sunnyvale, Calif., product # R7506 or cGMP#R7508), at a final concentration of 50 nM were made in the assay buffer (10 mM Tris HCl, pH 7.2, 10 mM MgCl2, 0.05% NaN3 0.01% Tween-20, and 1 mM DTT). Note that the substrate for PDE2 is 50 nM FAM cAMP containing 1000 nM of cGMP. The enzyme and the substrate were then added to the assay plates in two consecutive additions of 10 μL and then shaken to mix. The reaction was allowed to proceed at room temperature for 60 minutes. A binding solution was then made from the kit components, comprised of 80% Solution A, 20% Solution B and binding reagent at a volume of 1/600 the total binding solution. The enzymatic reaction was stopped by addition of 60 μL of the binding solution to each well of the assay plate. The plates were sealed and shaken for 10 seconds. The plates were incubated at room temperature for one hour, then the parallel and perpendicular fluorescence was measured using a Tecan Genios Pro plate reader (Tecan, Switzerland). […] The intrinsic PDE2 inhibitory activity of a compound which may be used in accordance with the present invention may be determined by these assays. […]

[1] = Lab A, read-out: Rhesus PDE2 Ki (nM) - Lab A

Sequence of Rhesus PDE2A3 (B3VTJ2 1-941): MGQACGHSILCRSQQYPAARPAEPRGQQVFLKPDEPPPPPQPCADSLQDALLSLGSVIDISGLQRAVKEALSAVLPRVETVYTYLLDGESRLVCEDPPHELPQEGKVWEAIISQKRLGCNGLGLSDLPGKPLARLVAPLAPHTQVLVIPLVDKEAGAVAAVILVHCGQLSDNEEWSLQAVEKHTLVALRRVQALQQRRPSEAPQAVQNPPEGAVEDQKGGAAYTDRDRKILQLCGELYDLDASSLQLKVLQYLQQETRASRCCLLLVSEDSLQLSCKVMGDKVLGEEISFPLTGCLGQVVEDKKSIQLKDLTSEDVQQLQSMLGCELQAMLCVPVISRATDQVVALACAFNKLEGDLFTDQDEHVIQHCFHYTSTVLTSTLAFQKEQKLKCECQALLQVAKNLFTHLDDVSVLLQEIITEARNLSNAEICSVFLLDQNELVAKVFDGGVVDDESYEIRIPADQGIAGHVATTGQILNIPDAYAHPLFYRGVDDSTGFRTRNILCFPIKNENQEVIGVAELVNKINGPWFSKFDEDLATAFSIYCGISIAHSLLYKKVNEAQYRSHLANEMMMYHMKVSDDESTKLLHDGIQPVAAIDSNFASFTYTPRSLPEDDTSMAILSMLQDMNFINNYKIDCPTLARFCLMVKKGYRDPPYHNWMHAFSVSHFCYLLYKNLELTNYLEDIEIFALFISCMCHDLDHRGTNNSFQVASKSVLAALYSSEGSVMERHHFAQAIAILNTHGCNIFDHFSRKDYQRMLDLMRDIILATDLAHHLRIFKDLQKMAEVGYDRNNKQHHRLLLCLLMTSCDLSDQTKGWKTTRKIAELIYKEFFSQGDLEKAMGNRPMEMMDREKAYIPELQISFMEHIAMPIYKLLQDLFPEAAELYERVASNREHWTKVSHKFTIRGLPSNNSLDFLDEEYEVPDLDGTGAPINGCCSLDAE
Sequence of human PDE2A1 (O00408 other isoform, or with tags, fused parts or gaps): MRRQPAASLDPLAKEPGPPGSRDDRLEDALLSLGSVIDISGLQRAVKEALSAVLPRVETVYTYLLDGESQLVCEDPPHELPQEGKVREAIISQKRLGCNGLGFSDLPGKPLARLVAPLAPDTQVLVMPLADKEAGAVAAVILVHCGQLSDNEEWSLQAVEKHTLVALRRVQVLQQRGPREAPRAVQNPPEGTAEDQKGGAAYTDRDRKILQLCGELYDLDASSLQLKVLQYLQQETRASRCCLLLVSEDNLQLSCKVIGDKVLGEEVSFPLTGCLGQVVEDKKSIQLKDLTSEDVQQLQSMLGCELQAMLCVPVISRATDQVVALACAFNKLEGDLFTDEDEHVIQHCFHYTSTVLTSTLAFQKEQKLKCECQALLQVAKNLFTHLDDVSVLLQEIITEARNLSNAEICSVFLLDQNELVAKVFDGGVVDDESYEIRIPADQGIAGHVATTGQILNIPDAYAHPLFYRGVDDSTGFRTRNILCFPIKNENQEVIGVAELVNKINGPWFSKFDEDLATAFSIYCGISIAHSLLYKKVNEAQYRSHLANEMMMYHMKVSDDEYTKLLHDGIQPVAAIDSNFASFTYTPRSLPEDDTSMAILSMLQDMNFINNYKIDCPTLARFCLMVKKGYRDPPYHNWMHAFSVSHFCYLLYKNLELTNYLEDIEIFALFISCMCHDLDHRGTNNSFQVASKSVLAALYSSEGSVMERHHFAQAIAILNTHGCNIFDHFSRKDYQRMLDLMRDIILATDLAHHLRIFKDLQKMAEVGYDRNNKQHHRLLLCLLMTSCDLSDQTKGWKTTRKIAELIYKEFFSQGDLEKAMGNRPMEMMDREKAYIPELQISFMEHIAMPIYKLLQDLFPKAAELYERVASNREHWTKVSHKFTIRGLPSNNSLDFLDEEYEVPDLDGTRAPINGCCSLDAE

SMILES: CSc1nc(C(=O)N[C@@H](C)c2ccc(C(F)(F)F)cc2)cc(=O)[nH]1 [Example 16, (S)-2-(methylthio)-6-oxo-N-(1-(4-(trifluoromethyl)phenyl)ethyl)-1,6-dihydropyrimidine-4-carboxamide]
- Ki (Rhesus PDE2A3; [1]): 13300 nM

SMILES: CC(NC(=O)c1cc(=O)[nH]c(OC2COC2)n1)c1ccc(C(F)(F)F)cc1 (stereo not drawn) [Example 192, 2-(oxetan-3-yloxy)-6-oxo-N-{1-[4-(trifluoromethyl)phenyl]ethyl}-1,6-dihydropyrimidine-4-carboxamide]
- Ki (Rhesus PDE2A3; [1]): 11500 nM

SMILES: CNCCCOc1nc(C(=O)NC(C)c2ccc(C(F)(F)F)cc2)cc(=O)[nH]1 (stereo not drawn) [Example 180, 2-[3-(methylamino)propoxy]-6-oxo-N-{1-[4-(trifluoromethyl)phenyl]ethyl}-1,6-dihydro-pyrimidine-4-carboxamide]
- Ki (Rhesus PDE2A3; [1]): 86000 nM

SMILES: CNCCOc1nc(C(=O)NC(C)c2ccc(C(F)(F)F)cc2)cc(=O)[nH]1 (stereo not drawn) [Example 189, 2-[2-(methylamino)ethoxy]-6-oxo-N-{1-[4-(trifluoromethyl)phenyl]ethyl}-1,6-dihydropyrimidine-4-carboxamide]
- Ki (Rhesus PDE2A3; [1]): 9310 nM

SMILES: CC(C)C(C)(NC(=O)c1cc(=O)[nH]c(N(C)C)n1)c1ccc(S(F)(F)(F)(F)F)cc1 (single isomer, unassigned) [Example 172, (R)- or (S)-2-dimethylamino)-N-{1,2-dimethyl-1-[4-(pentafluoro-λ^6-sulfanyl)phenyl]propyl}-6-oxo-1,6-dihydropyrimidine-4-carboxamide]
- Ki (Rhesus PDE2A3; Rhesus PDE2 Ki (nM) - Lab B, Lab B): 154 nM

SMILES: CC(NC(=O)c1cc(=O)[nH]c(OC2CCNCC2)n1)c1ccc(C(F)(F)F)cc1 (stereo not drawn) [Example 187, 6-oxo-2-(piperidin-4-yloxy)-N-{1-[4-(trifluoromethyl)phenyl]ethyl}-1,6-dihydropyrimidine-4-carboxamide]
- Ki (Rhesus PDE2A3; [1]): > 100000 nM

SMILES: C[C@@H](NC(=O)c1cc(=O)[nH]c(-n2cccn2)n1)c1ccc(C(F)(F)F)cc1 [Example 9, (R)-6-oxo-2-(1H-pyrazol-1-yl)-N-(1-(4-(trifluoromethyl)phenyl)ethyl)-1,6-dihydropyrimidine-4-carboxamide]
- inhibition at 1 µM (Rhesus PDE2A3; Lab A): 26%

SMILES: COCCOc1nc(C(=O)NC(C)c2ccc(C(F)(F)F)cc2)cc(=O)[nH]1 (stereo not drawn) [Example 21, 2-(2-Methoxyethoxy)-6-oxo-N-(1-(4-(trifluoromethyl)phenyl)ethyl)-1,6-dihydropyrimidine-4-carboxamide]
- Ki (Rhesus PDE2A3; [1]): 657 nM

SMILES: Cc1cnn(-c2nc(C(=O)N[C@H](C)c3ccc(C(F)(F)F)cc3)cc(=O)[nH]2)c1 [Example 7, (R)-2-(4-methyl-1H-pyrazol-1-yl)-6-oxo-N-(1-(4-(trifluoromethyl)phenyl)ethyl)-1,6-dihydropyrimidine-4-carboxamide]
- inhibition at 1 µM (Rhesus PDE2A3; Lab A): 25%

SMILES: C[C@@H](NC(=O)c1cc(=O)[nH]c(Oc2ccccc2)n1)c1ccc(C(F)(F)F)cc1 [Example 19, (R)-6-oxo-2-phenoxy-N-(1-(4-(trifluoromethyl)phenyl)ethyl)-1,6-dihydropyrimidine-4-carboxamide]
- Ki (Rhesus PDE2A3; [1]): 2930 nM

SMILES: Cc1ccn(-c2nc(C(=O)N[C@H](C)c3ccc(C(F)(F)F)cc3)cc(=O)[nH]2)n1 [Example 8, (R)-2-(3-methyl-1H-pyrazol-1-yl)-6-oxo-N-(1-(4-(trifluoromethyl)phenyl)ethyl)-1,6-dihydropyrimidine-4-carboxamide]
- inhibition at 1 µM (Rhesus PDE2A3; Lab A): 30%

SMILES: CC(NC(=O)c1cc(=O)[nH]c(OC2CCNC2)n1)c1ccc(C(F)(F)F)cc1 (stereo not drawn) [Example 185, 6-oxo-2-(pyrrolidin-3-yloxy)-N-{1-[4-(trifluoromethyl)phenyl]ethyl}-1,6-dihydropyrimidine-4-carboxamide]
- Ki (Rhesus PDE2A3; [1]): > 100000 nM

SMILES: CC(NC(=O)c1cc(=O)[nH]c(OCCN(C)C)n1)c1ccc(C(F)(F)F)cc1 (stereo not drawn) [Example 184, 2-[2-(dimethylamino)ethoxy]-6-oxo-N-{1-[4-(trifluoromethyl)phenyl]ethyl}-1,6-dihydro-pyrimidine-4-carboxamide]
- Ki (Rhesus PDE2A3; [1]): 72000 nM

SMILES: CC(NC(=O)c1cc(=O)[nH]c(OC2CCN(C)CC2)n1)c1ccc(C(F)(F)F)cc1 (stereo not drawn) [Example 190, 2-[(1-methylpiperidin-4-yl)oxy]-6-oxo-N-{1-[4-(trifluoromethyl)phenyl]ethyl}-1,6-dihydro-pyrimidine-4-carboxamide]
- Ki (Rhesus PDE2A3; [1]): > 100000 nM

SMILES: CC(NC(=O)c1cc(=O)[nH]c(OCC2(C)COC2)n1)c1ccc(C(F)(F)F)cc1 (stereo not drawn) [Example 188, 2-[(3-methyloxetan-3-yl)methoxy]-6-oxo-N-{1-[4-(trifluoromethyl)phenyl]ethyl}-1,6-dihydropyrimidine-4-carboxamide]
- Ki (Rhesus PDE2A3; [1]): 12600 nM

SMILES: CC(NC(=O)c1cc(=O)[nH]c(OC2CCN(C)C2)n1)c1ccc(C(F)(F)F)cc1 (stereo not drawn) [Example 181, 2-[(1-methylpyrrolidin-3-yl)oxy]-6-oxo-N-{1-[4-(trifluoromethyl)phenyl]ethyl}-1,6-dihydro pyrimidine-4-carboxamide]
- Ki (Rhesus PDE2A3; [1]): > 100000 nM

SMILES: CC(NC(=O)c1cc(=O)[nH]c(OC2CCOC2)n1)c1ccc(C(F)(F)F)cc1 (stereo not drawn) [Example 193, 6-oxo-2-(tetrahydrofuran-3-yloxy)-N-{1-[4-(trifluoromethyl)phenyl]ethyl}-1,6-dihydropyrimidine-4-carboxamide]
- Ki (Rhesus PDE2A3; [1]): 1060 nM

SMILES: C[C@H]1C[C@]1(NC(=O)c1cc(=O)[nH]c(N(C)C)n1)c1ccc(C(F)(F)F)cc1 (single isomer, unassigned; enantiomer b) [Example 175, 2-(dimethylamino)-N-{2-methyl-1-[4-(trifluoromethyl)phenyl]cyclopropyl}-6-oxo-1,6-dihydropyrimidine-4-carboxamide (cis, enantiomer B)]
- Ki (human PDE2A1): 0.92 nM

SMILES: CN(C)c1nc(C(=O)N[C@@](C)(CO)c2ccc(C(F)(F)F)cc2Cl)cc(=O)[nH]1 [Example 209, N-{(1R)-1-[2-chloro-4-(trifluoromethyl)phenyl]-2-hydroxy-1-methylethyl}-2-(dimethylamino)-6-oxo-1,6-dihydropyrimidine-4-carboxamide]
- Ki (human PDE2A1): 3.9 nM

SMILES: CN(C)c1nc(C(=O)NC(CO)c2ccc(C(F)(F)F)cc2)cc(=O)[nH]1 (stereo not drawn) [Example 206, 2-(dimethylamino)-N-{2-hydroxy-1-[4-(trifluoromethyl)phenyl]ethyl}-6-oxo-1,6-dihydropyrimidine-4-carboxamide]
- Ki (human PDE2A1): 7.2 nM

SMILES: COCC1CCN(c2nc(C(=O)N[C@@H](c3ccc(C(F)(F)F)cc3)C(C)(C)C)cc(=O)[nH]2)C1 (single isomer, unassigned) [Example 177, (S)- or (R)-N-{(1R)-2,2-dimethyl-1-[4-(trifluoromethyl)phenyl]propyl}-2-[3-(methoxymethyl)pyrrolidin-1-yl]-6-oxo-1,6-dihydropyrimidine-4-carboxamide]
- Ki (human PDE2A1): 0.46 nM

SMILES: CN(C)c1nc(C(=O)NC(c2ccccc2)c2ccc(C(F)(F)F)cc2)cc(=O)[nH]1 (stereo not drawn) [Example 195, 2-(dimethylamino)-6-oxo-N-{phenyl[4-(trifluoromethyl)phenyl]methyl}-1,6-dihydropyrimidine-4-carboxamide]
- Ki (human PDE2A1): 81 nM

SMILES: CC(NC(=O)c1cc(=O)[nH]c(N(C)C)n1)c1ccc(C(C)(C)C(F)(F)F)cc1 (single isomer, unassigned) [Example 121, (S)- or (R)-2-(dimethylamino)-6-oxo-N-{1-[4-(2,2,2-trifluoro-1,1-dimethylethyl)phenyl]ethyl}-1,6-dihydropyrimidine-4-carboxamide]
- inhibition at 3 µM (human PDE2A1; @ 3 μM, read-out: Human PDE2 % inhibition at a given concentration - Lab B): 15%

SMILES: CC(C)[C@@H](NC(=O)c1cc(=O)[nH]c(N(C)C)n1)c1ccc(C(C)(F)F)cc1 [Example 75, N-{(1R)-1-[4-(1,1-difluoroethyl)phenyl]-2-methylpropyl}-2-(dimethylamino)-6-oxo-1,6-dihydropyrimidine-4-carboxamide]
- Ki (human PDE2A1): 0.39 nM
